In ChEMBL document CHEMBL1201862, “PubChem BioAssay data set” (2004):
Activity calls are given as the source filed them.

What was measured:
[1] = Counterscreen for inhibitors of Trypanosoma brucei methionyl tRNA synthetase (MetRS): Luminescence-based cell-based high throughput dose response assay to identify compounds that are cytotoxic to Jurkat human T lymphocyte cells.; type: functional
[2] = target: T1, Methionyl-tRNA synthetase, putative (Trypanosoma brucei brucei, UniProt Q38C91); type: functional, Trypanosoma brucei brucei strain 927/4 GUTat10.1
T1 sequence (Q38C91 whole entry): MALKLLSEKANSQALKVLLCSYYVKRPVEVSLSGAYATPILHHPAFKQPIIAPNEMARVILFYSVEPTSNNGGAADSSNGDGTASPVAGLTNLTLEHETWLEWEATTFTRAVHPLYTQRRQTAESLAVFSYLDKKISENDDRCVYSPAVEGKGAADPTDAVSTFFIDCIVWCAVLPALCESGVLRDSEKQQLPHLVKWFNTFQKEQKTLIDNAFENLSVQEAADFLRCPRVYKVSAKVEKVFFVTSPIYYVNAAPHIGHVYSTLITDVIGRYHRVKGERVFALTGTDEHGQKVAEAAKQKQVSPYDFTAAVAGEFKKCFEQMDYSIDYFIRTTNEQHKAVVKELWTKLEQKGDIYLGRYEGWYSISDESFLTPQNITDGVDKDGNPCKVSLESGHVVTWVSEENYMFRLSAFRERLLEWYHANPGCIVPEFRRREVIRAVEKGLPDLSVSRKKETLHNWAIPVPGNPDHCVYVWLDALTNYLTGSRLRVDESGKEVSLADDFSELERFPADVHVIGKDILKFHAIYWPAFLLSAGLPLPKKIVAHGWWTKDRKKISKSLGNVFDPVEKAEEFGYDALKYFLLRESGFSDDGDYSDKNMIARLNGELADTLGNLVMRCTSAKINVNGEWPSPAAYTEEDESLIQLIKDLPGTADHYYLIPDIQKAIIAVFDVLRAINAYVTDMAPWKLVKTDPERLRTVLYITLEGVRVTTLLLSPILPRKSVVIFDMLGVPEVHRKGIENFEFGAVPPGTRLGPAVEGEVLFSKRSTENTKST

[3] = target: T1, Methionyl-tRNA synthetase, putative; type: functional, Trypanosoma brucei brucei strain 927/4 GUTat10.1; remark: listed apart in the source
[4] = Luminescence Cell-Based Dose Retest to Confirm Inhibitors of Cancer Stem Cells. [Related pubchem assays (depositor defined):AID2717, AID2721]; type: functional; conditions: Homo sapiens
[5] = target: T2, Rac GTPase-activating protein 1 (Homo sapiens, UniProt Q9H0H5); experiment: blockers of MgcRacGAP-driven Rac1 GTP hydrolysis – biochemical, ADP Hunter fluorescence, primary and confirmatory, confirmation (AID 624330); type: functional
T2 sequence (Q9H0H5 whole entry): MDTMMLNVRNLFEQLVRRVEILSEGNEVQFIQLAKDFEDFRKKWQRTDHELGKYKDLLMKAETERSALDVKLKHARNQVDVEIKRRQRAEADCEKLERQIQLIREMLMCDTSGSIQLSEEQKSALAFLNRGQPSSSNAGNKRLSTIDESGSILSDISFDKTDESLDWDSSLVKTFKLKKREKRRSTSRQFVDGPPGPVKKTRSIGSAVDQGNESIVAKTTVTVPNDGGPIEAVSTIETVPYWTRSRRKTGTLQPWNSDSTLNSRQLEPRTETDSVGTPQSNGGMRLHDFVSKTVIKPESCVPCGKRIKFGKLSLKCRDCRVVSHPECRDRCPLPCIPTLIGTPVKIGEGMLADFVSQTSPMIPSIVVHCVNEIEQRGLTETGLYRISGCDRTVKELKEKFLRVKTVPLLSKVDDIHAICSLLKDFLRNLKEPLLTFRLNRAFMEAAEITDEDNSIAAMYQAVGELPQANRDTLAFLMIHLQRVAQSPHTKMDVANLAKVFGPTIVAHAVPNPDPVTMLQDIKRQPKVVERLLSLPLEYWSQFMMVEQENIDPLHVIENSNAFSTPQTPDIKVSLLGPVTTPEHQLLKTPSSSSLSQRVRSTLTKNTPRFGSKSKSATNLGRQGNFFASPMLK

[6] = bead-based luminescence quenchers, dual-tagged ARNT – biochemical, AlphaScreen, cherry-pick, artefact control for ARNT-TACC3 interaction inhibitor project, dose response (AID 651705); type: functional;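 note: AlphaScreen bead proximity signal that flags compounds interfering with the detection technology; potency reflects signal decrease which marks the compound as an assay artifact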
[7] = target: T3, Hepatocyte nuclear factor 4-alpha (Homo sapiens, UniProt P41235); type: functional, cell-based;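 note: biochemical luminescence-based dose-response counterscreen measuring inhibition of HNF4 dimerization, run alongside a screen for blockers of ABHD5–perilipin-5 interaction; split luciferase complementation of HNF4 fusion proteins in cell lysate measuring dimerization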
T3 sequence (P41235 whole entry): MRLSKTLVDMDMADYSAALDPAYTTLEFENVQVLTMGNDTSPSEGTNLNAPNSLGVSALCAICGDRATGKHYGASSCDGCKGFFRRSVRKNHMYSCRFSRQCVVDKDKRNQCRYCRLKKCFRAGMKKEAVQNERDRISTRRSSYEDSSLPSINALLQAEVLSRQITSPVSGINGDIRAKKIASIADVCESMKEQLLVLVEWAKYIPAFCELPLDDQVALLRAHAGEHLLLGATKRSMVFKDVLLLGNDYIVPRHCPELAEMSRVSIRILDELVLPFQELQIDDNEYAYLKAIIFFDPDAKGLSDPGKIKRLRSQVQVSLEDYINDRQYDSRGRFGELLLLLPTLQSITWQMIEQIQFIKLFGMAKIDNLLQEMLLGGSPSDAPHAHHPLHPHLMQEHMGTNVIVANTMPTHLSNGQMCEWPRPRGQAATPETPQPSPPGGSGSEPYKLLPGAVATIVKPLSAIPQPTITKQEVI

cells [8] = experiment: cells
Major prion protein = Major prion protein (Homo sapiens, UniProt P04156); type: functional, cell-based
[9] = target: T4, DNA repair and recombination protein RAD54-like (Homo sapiens, UniProt Q92698); experiment: RAD54 Holliday junction migration blockers – biochemical, fluorescence, cherry-picked samples, dose series, confirmation (AID 651657); type: functional
T4 sequence (Q92698 whole entry): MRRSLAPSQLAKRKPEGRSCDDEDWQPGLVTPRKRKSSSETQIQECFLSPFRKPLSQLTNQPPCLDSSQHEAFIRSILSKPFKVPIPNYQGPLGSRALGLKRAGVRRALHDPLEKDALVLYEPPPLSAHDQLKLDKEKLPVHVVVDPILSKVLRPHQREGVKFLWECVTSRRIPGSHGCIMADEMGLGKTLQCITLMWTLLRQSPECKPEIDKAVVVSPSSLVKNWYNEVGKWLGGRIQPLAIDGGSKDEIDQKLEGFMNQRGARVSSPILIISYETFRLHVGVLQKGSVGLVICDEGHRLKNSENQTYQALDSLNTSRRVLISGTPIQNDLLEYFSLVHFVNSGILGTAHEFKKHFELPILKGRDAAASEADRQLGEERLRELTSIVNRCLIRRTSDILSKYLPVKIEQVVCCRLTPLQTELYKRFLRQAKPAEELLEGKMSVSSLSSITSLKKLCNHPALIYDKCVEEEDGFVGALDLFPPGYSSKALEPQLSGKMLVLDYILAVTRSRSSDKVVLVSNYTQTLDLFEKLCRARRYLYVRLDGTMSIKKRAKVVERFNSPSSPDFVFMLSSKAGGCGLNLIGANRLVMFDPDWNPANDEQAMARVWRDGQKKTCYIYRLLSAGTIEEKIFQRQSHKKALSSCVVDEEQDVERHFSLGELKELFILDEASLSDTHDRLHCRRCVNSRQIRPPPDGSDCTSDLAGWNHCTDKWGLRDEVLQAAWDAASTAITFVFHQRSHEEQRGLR

[10] = target: T5, Microphthalmia-associated transcription factor (Homo sapiens, UniProt O75030); experiment: reducers of TRPM1 reporter luminescence, concentration series – cell-based, SK-MEL-5, cherry-picked, set 3, MITF inhibitor project, dose response (AID 493073); type: functional;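 note: SK-MEL-5 melanoma cells with luciferase driven by the MITF target TRPM1 promoter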
T5 sequence (O75030 whole entry): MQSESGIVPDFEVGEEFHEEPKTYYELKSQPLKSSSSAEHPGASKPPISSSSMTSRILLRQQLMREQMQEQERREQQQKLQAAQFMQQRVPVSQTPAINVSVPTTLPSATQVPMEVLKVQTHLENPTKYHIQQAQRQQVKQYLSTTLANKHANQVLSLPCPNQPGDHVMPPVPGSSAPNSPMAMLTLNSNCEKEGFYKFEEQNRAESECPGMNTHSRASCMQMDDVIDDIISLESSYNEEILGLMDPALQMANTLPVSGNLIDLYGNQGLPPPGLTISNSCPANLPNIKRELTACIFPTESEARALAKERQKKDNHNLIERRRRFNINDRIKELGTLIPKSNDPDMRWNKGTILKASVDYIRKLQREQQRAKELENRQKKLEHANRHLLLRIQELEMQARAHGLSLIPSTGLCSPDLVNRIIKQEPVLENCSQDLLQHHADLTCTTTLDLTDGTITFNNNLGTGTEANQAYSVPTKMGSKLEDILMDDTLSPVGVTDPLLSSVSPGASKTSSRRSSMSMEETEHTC

[11] = target: T6, DNA repair protein RAD52 homolog (Homo sapiens, UniProt P43351); type: functional, biochemical
T6 sequence (P43351 whole entry): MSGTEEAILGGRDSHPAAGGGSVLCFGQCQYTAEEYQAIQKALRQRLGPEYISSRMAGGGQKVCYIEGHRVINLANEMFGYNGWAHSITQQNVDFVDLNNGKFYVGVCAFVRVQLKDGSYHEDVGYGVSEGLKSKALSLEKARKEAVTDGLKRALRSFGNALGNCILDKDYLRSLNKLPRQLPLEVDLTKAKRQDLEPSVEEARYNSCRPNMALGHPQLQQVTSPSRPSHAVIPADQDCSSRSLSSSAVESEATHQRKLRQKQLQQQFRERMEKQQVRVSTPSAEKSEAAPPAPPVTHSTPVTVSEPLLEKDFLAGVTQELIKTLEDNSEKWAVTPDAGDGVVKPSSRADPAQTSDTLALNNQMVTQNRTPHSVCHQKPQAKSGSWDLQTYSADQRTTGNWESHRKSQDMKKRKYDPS

[12] = target: T7, Long-chain-fatty-acid--AMP ligase FadD28 (Mycobacterium tuberculosis, UniProt P9WQ59); experiment: Fluorescence polarization aasay to screen for inhibitors that compete for the binding of FadD28 to a bisubstrate Measured in Biochemical System Using Plate Reader - 2147-01_Inhibitor_Dose_CherryPick_Activity.; type: functional, Mycobacterium tuberculosis H37Rv
T7 sequence (P9WQ59 whole entry): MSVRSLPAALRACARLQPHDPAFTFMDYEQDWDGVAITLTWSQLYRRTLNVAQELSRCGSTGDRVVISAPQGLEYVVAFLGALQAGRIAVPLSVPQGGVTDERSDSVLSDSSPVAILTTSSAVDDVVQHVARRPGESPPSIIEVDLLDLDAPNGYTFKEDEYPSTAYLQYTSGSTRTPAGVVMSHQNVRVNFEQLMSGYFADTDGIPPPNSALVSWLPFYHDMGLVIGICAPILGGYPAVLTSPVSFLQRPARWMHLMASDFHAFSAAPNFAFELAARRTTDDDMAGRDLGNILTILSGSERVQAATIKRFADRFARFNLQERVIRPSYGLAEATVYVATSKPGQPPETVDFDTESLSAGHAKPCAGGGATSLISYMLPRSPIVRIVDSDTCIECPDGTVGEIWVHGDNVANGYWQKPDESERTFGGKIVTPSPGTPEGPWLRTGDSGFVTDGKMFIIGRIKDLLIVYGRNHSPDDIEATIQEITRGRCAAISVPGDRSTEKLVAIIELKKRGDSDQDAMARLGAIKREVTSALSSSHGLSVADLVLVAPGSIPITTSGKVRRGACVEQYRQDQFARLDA

cells [13] = type: functional, cell-based
INS1 = experiment: INS-1E survival protection against cytokine death – cell-based, luminescence, retest, dose response (AID 449756); type: functional; conditions: Rattus norvegicus;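 note: cell death triggered by IL-1 beta plus TNF-alpha plus IFN-gamma mixture; protective hits raise ATP signal compared with cytokine alone wells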
cells [14] = type: functional, cell-based; remark: listed apart in the source
H9c2 = experiment: cells; type: functional, cell-based; conditions: Rattus norvegicus, H9c2, Myocardium

## Cc1cccc(NS(=O)(=O)c2c(C)[nH]c(C)c2C(=O)N2CCCC2)c1
[1]
  IC50: 83.3 µM (inactive)
[2]
  IC50: 35.4 µM (inactive)
[3]
  IC50: 11.8 µM (inactive)

## Cc1cccc(NC(=O)CCC(=O)N/N=C/c2ccc(O)cc2O)c1
[4]
  AC50: 9.74 µM (active)
[5]
  IC50: 62.8 µM (active)
[6]
  AC50: 118 µM (active)

## NC(=O)C(C(=O)/C=C/c1ccc(Cl)cc1)=C1SCCS1
[7]
  IC50: 12.1 µM (inactive)

## CCOc1ccc(NC(=O)CCSc2ccc3ccccc3n2)cc1
Cells [8]
  IC50: > 138 µM (inactive)
Major prion protein
  IC50: 9.01 µM (active)

## OC(c1cc(F)cc(Cl)c1)c1nc(-c2ccc3ccccc3c2)c[nH]1 (centres undefined)
[1]
  IC50: 83.3 µM (inactive)
[2]
  IC50: 1.46 µM (active)
[3]
  IC50: 2.45 µM (active)

## CCN1CCN(c2ccc(Nc3ccnc4ccccc34)cc2)CC1
[9]
  AC50: 12.2 µM (active)
[10]
  AC50: 12.3 µM (active)
[11]
  AC50: 3.19 µM (active)

## CCOC(=O)c1c(CN2CCCCC2)n(C)c2cc(Br)c(OC)cc12
[9]
  AC50: 36.3 µM (active)

## Cc1cccn2c(=O)c3cc(C(=O)NCc4ccccc4)c(=N)n(CCCN4CCOCC4)c3nc12
[9]
  AC50: 15.3 µM (active)

## Cc1cccc(OCC(=O)N/N=C\c2cn(C)c3ccccc23)c1
[12]
  AC50: 14.6 µM (active)

## NC(=O)CSc1nc(-c2ccccc2)nc2ccccc12
Cells [8]
  IC50: > 138 µM (inactive)
Major prion protein
  IC50: 6.23 µM (active)

## CCCCCNC(=O)C(c1cc2ccccc2o1)n1c(=O)c(-c2ccco2)nc2ccccc21 (centres undefined)
[7]
  IC50: 2 µM (active)

## COC(=O)CSc1ccnc2cc(Cl)ccc12
Cells [8]
  IC50: > 138 µM (inactive)
Major prion protein
  IC50: 5.16 µM (active)

## COC(=O)COc1ccc(Cl)cc1C1Nc2ccccc2C(=O)N1c1ccc(OC)cc1 (centres undefined)
[12]
  AC50: > 100 µM (inactive)

## CCc1ccc(NC(=O)CSc2ccc(-c3ccccn3)nn2)cc1
Cells [13]
  EC50: 160 µM (active)
INS1
  AC50: 9.24 µM (active)
[6]
  AC50: 87 µM (active)
Cells [14]
  EC50: > 350 µM (not active)
H9c2
  IC50: > 79 µM (inactive)
